ChEMBL document CHEMBL1201862, “PubChem BioAssay data set” (2004)
Activity calls are given as the source filed them.

Experiments:
[1] = test system: Streptococcus sp. 'group A'; assay: growth inhibition of control SK(-) GAS strain, dose response, counter-screen for streptokinase expression inhibitor project, luminescence, kanamycin, BacTiterGlo, confirmation (AID 1900); format: functional, organism-based
Streptococcus [2] = assay: Luminescence Microorganism-Based Dose Response Follow up to Identify Compounds Cytotoxic to Streptococcus. [Related pubchem assays: 1677 (Project Summary), 1915, 1914, 1902 (Retest at Dose), 1900 (Counter Screen), 1662 (Primary HTS)]; format: functional, organism-based
Streptokinase A = target: T1, Streptokinase A (Streptococcus pyogenes serotype M1, UniProt P10520); assay: S. pyogenes streptokinase expression inhibitors, potency, dose response, plasminogen activation absorbance, OD405 (AID 1914); format: functional, Streptococcus pyogenes M1 GAS;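 also: secreted streptokinase activity via plasminogen activation per viability signal from cell pellet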
T1 sequence (P10520 whole entry): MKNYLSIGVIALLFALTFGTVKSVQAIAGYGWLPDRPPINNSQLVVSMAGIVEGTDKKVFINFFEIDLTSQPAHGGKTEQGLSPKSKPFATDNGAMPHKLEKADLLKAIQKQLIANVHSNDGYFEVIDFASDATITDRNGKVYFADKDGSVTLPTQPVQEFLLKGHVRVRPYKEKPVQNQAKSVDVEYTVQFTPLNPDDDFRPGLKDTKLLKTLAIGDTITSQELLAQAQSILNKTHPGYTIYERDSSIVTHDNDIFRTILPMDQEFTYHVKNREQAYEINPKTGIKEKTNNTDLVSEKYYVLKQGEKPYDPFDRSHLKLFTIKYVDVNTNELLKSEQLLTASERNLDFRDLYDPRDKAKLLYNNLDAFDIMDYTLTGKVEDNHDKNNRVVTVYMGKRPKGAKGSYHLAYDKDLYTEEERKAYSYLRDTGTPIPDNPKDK

Streptococcus [3] = assay: Group A Streptococcus viability loss, dose response, counter-screen for streptokinase expression inhibitor project, luminescence, BacTiterGlo (AID 1915); format: functional, organism-based;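 also: potency for reduction of bacterial viability or growth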
[4] = target: Signal transducer and activator of transcription 3 (Homo sapiens, UniProt P40763); assay: STAT3 activators, late-stage profile, late-stage follow-up, cell-based, STAT1 reporter, BCL3 qPCR, cytotoxicity, panel member STAT3 Activation (AID 2049)
[5] = target: T2, RNA-binding protein pos-1 (Caenorhabditis elegans, UniProt G5EF15); assay: inhibitors of POS-1/mex-3 RNA binding, dose response, biochemical, fluorescence polarization (AID 1964);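 also: purified POS-1 fused to maltose binding protein made in E. coli; potency of compounds blocking POS-1 binding to fluorescent RNA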
T2 sequence (G5EF15 whole entry): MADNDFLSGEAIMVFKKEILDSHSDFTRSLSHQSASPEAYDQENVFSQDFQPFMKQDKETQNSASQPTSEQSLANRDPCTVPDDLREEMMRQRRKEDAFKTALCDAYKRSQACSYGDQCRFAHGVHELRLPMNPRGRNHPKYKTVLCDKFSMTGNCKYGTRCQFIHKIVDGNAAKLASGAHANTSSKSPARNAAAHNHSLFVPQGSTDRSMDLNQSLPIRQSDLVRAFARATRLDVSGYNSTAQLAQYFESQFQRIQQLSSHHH

[6] = target: T3, Zinc finger protein mex-5 (Caenorhabditis elegans, UniProt Q9XUB2); assay: MEX-5/TCR-2 RNA interaction inhibitors, dose response, biochemical, C. elegans, fluorescence polarization (AID 1960)
T3 sequence (Q9XUB2 whole entry): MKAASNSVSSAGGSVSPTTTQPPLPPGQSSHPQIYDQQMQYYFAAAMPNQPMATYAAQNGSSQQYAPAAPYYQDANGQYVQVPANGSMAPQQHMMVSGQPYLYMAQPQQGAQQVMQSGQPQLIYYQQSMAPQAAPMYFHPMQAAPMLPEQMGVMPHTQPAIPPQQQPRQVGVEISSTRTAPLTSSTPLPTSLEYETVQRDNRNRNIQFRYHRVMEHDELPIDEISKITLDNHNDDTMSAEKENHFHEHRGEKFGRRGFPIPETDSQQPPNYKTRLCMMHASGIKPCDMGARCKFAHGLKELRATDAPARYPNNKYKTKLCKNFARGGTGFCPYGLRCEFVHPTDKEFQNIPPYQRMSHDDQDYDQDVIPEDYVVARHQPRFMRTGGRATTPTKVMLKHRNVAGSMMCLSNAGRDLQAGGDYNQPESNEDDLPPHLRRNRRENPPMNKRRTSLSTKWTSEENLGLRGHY

[7] = target: Transitional endoplasmic reticulum ATPase (Homo sapiens, UniProt P55072, C522A); assay: C522A mutant p97 ATPase inhibitors, dose response, counter-screen for p97 inhibitor project, biochemical, luminescence (AID 1544)
[8] = target: Transitional endoplasmic reticulum ATPase (Homo sapiens, UniProt P55072); assay: p97 ATPase inhibitors, dose response, biochemical (AID 1534)
[9] = target: T4, Short transient receptor potential channel 4 (Mus musculus, UniProt Q9QUQ5); assay: mouse TRPC4 channel inhibitors, dose response, cell-based, HEK293 TRPC4/mu-opioid, Fluo-4 calcium (AID 434942); format: functional;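 also: potency of inhibitors blocking the TRPC4 calcium response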
T4 sequence (Q9QUQ5 whole entry): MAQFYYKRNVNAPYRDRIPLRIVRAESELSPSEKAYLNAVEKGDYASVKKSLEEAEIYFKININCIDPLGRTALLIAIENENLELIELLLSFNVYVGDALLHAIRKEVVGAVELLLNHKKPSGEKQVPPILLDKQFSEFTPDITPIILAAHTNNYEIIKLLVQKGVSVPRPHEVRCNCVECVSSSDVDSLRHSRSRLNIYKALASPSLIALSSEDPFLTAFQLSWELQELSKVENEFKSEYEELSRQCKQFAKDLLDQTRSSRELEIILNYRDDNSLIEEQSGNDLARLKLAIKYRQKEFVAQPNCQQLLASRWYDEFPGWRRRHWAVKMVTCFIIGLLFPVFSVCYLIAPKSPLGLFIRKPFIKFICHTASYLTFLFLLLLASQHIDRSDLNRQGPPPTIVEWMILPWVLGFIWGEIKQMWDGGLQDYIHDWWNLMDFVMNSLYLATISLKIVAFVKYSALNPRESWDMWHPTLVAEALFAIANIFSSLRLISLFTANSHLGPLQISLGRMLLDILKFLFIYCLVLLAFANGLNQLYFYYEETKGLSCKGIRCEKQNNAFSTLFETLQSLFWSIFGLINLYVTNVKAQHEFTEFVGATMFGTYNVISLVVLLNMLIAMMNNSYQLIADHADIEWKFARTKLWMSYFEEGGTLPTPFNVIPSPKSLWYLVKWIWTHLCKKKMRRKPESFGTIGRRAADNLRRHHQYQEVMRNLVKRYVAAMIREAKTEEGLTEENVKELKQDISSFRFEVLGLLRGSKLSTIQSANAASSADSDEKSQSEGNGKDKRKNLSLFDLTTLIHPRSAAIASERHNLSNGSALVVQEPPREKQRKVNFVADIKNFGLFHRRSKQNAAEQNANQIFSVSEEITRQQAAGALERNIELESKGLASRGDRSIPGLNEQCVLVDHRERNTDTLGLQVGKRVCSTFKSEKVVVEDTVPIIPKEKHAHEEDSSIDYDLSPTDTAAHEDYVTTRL

[10] = target: FAD-linked sulfhydryl oxidase ALR (Homo sapiens, UniProt P55789); assay: inhibitors of human ALR sulfhydryl oxidase, dose response, biochemical, H2O2 detection, luminescence, cherry-pick (AID 493248)
[11] = target: Dual specificity tyrosine-phosphorylation-regulated kinase 1A (Rattus norvegicus, UniProt Q63470); format: biochemical, Homo sapiens
[12] = HeLa cell cytotoxicity, dose response, cytotoxicity control for MgcRacGAP inhibitor project (AID 624300); format: functional
[13] = target: T5, Rac GTPase-activating protein 1 (Homo sapiens, UniProt Q9H0H5); assay: MgcRacGAP GTPase-activating activity inhibitors, confirmation, biochemical, ADP Hunter fluorescence, primary and confirmatory (AID 624330); format: functional
T5 sequence (Q9H0H5 whole entry): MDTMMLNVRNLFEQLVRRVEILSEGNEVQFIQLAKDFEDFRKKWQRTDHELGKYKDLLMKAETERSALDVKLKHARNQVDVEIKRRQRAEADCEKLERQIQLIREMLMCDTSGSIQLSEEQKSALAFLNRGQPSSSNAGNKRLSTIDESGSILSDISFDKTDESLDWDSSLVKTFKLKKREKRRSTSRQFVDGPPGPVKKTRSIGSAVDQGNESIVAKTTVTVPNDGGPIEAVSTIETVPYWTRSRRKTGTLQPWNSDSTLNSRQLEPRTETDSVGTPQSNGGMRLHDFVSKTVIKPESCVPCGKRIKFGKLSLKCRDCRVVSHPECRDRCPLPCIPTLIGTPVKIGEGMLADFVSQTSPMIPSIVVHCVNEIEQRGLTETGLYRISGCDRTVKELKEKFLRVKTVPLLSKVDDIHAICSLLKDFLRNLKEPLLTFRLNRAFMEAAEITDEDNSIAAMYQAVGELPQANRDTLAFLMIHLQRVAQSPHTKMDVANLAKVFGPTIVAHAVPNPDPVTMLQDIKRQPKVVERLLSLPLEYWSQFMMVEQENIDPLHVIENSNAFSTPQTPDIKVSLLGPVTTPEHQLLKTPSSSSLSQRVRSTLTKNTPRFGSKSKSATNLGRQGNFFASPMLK

Transitional endoplasmic reticulum ATPase (Homo sapiens, UniProt P55072, C522A), sequence (P55072 2-806 C522A limits assumed): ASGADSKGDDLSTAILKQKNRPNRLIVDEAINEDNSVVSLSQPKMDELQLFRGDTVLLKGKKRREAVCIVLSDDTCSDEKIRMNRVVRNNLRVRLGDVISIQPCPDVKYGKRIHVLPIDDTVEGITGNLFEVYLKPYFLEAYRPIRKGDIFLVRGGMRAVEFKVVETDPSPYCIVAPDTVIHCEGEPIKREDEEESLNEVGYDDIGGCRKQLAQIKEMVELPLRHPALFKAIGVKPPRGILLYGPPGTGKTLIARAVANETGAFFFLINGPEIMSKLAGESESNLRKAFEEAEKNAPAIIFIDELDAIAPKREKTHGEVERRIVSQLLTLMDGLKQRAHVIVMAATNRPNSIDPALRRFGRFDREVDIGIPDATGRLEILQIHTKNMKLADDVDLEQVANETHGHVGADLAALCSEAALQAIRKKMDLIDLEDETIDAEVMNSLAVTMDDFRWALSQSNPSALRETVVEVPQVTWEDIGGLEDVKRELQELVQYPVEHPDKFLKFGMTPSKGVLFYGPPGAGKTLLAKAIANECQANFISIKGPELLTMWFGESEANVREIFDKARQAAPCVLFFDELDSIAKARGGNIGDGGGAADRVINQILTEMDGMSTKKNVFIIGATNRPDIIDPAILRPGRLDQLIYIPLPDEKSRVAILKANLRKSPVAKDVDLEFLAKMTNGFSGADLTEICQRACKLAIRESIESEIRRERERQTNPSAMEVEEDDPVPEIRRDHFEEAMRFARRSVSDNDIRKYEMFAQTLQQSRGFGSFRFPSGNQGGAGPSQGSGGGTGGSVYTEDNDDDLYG
Transitional endoplasmic reticulum ATPase (Homo sapiens, UniProt P55072), sequence (P55072 whole entry): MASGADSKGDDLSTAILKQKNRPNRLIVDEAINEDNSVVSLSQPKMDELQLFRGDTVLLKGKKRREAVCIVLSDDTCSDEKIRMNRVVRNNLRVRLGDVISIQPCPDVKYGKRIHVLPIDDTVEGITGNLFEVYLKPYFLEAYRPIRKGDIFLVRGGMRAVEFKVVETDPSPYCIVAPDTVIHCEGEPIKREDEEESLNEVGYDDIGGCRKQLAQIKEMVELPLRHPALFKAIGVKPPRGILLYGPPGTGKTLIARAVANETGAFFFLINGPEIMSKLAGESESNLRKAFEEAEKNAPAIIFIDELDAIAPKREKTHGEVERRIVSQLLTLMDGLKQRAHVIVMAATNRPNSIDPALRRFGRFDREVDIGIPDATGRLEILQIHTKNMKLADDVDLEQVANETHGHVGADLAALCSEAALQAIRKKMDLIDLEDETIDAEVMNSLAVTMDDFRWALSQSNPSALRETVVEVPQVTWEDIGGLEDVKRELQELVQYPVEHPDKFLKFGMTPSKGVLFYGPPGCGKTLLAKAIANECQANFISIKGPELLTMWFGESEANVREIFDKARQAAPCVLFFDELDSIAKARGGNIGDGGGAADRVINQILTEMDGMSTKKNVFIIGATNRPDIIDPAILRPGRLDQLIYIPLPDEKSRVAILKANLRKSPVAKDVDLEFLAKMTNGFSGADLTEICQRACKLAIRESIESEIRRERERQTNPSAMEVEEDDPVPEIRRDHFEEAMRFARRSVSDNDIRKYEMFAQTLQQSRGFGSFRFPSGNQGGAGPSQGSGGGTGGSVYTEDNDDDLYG
Signal transducer and activator of transcription 3, sequence (P40763 whole entry, the tested form may be a part): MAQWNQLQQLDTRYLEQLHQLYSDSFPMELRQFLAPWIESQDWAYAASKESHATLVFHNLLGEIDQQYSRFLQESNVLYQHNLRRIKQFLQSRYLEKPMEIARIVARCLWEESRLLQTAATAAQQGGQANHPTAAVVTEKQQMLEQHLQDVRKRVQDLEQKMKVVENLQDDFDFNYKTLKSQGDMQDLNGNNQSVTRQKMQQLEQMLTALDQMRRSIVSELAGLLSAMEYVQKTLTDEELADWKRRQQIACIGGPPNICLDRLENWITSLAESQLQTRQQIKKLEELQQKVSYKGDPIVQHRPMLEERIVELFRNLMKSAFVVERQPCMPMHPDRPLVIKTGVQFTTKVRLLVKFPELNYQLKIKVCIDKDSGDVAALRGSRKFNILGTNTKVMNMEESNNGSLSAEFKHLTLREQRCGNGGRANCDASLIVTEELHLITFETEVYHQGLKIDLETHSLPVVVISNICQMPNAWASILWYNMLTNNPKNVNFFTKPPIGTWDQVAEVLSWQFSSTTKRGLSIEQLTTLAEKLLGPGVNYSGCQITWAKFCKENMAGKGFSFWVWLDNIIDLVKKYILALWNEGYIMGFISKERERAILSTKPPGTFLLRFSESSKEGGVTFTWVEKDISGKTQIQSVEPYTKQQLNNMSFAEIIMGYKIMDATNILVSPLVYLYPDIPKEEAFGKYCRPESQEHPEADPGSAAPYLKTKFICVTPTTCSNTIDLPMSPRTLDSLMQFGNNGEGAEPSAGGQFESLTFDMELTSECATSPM
FAD-linked sulfhydryl oxidase ALR, sequence (P55789 whole entry): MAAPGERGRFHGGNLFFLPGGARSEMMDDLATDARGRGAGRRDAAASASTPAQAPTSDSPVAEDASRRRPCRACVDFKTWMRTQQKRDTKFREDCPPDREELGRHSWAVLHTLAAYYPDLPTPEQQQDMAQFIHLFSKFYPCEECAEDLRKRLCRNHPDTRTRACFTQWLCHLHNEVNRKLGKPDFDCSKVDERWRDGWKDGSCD

For FC(F)(F)c1nc(N2CCN(c3ccccc3)CC2)nc2c1CCCCC2, the EC50 [1] was 2.83 µM (active), the EC50 (Streptococcus [2]) was > 500 µM (not active) and the EC50 (Streptokinase A) was 5.5 µM (active). For the same compound, the EC50 (Streptococcus [3]) was > 150 µM (not active).
In the case of COc1cc(NC(=O)c2cc(C(C)C)on2)c(OC)cc1Cl, the EC50 [4] is reported as 0.00104 µM (active).
In the case of NS(=O)(=O)c1ccc(Nc2nc(-c3ccc(O)cc3O)cs2)cc1, the EC50 [5] is reported as 17.1 µM (active), the EC50 [6] is reported as 9.7 µM (active) and the IC50 [7] is reported as > 50 µM (not active). The IC50 [8] was 24.2 µM (not active), the EC50 [9] was 1.33 µM (active) and the AC50 [10] was 3.12 µM (active). For the same compound, the AC50 [11] was 1.94 µM (active), the CC50 [12] was 100 µM (active) and the IC50 [13] was 44.5 µM (active).
